Numbers after ± are expanded uncertainties.
Experiment: excess molar enthalpy (molar enthalpy of mixing); xn = mol fraction of the nth substance listed
Conditions: Fluid (supercritical or subcritical phases), Flow calorimetry

CC(C)OC(C)C [diisopropyl ether] + O=C=O
Conditions | excess molar enthalpy [kJ/mol]
303.15 K, 6000 kPa, x2 = 0.837 | -6.96 ± 0.15
303.15 K, 6000 kPa, x2 = 0.8658 | -7.13 ± 0.15
303.15 K, 6000 kPa, x2 = 0.8924 | -7.16 ± 0.15
308.15 K, 5000 kPa, x2 = 0.1255 | -1.23 ± 0.026
308.15 K, 5000 kPa, x2 = 0.2326 | -2.22 ± 0.047
308.15 K, 5000 kPa, x2 = 0.3249 | -3.12 ± 0.066
308.15 K, 5000 kPa, x2 = 0.4054 | -3.87 ± 0.082
308.15 K, 5000 kPa, x2 = 0.4762 | -4.56 ± 0.097
308.15 K, 5000 kPa, x2 = 0.5389 | -5.12 ± 0.11
308.15 K, 5000 kPa, x2 = 0.5949 | -5.62 ± 0.12
308.15 K, 5000 kPa, x2 = 0.6452 | -6.07 ± 0.13
308.15 K, 5000 kPa, x2 = 0.6906 | -6.47 ± 0.14
308.15 K, 5500 kPa, x2 = 0.1263 | -1.15 ± 0.025
308.15 K, 5500 kPa, x2 = 0.2338 | -2.19 ± 0.047
308.15 K, 5500 kPa, x2 = 0.3265 | -2.97 ± 0.063
308.15 K, 5500 kPa, x2 = 0.4071 | -3.73 ± 0.079
308.15 K, 5500 kPa, x2 = 0.478 | -4.36 ± 0.093
308.15 K, 5500 kPa, x2 = 0.5407 | -4.92 ± 0.1
308.15 K, 5500 kPa, x2 = 0.5966 | -5.4 ± 0.12
308.15 K, 5500 kPa, x2 = 0.6468 | -5.85 ± 0.12
308.15 K, 5500 kPa, x2 = 0.6921 | -6.23 ± 0.13
308.15 K, 5500 kPa, x2 = 0.7331 | -6.58 ± 0.14
308.15 K, 6000 kPa, x2 = 0.127 | -1.16 ± 0.025
308.15 K, 6000 kPa, x2 = 0.235 | -2.06 ± 0.044
308.15 K, 6000 kPa, x2 = 0.3279 | -2.9 ± 0.062
308.15 K, 6000 kPa, x2 = 0.4087 | -3.57 ± 0.076
308.15 K, 6000 kPa, x2 = 0.4796 | -4.28 ± 0.091
308.15 K, 6000 kPa, x2 = 0.5423 | -4.7 ± 0.1
308.15 K, 6000 kPa, x2 = 0.5982 | -5.12 ± 0.11
308.15 K, 6000 kPa, x2 = 0.6483 | -5.61 ± 0.12
308.15 K, 6000 kPa, x2 = 0.6934 | -5.94 ± 0.13
308.15 K, 6000 kPa, x2 = 0.7344 | -6.23 ± 0.13
308.15 K, 6000 kPa, x2 = 0.7716 | -6.53 ± 0.14
308.15 K, 6000 kPa, x2 = 0.8057 | -6.73 ± 0.14
308.15 K, 6000 kPa, x2 = 0.8248 | -6.85 ± 0.15
308.15 K, 6500 kPa, x2 = 0.1277 | -1.06 ± 0.023
308.15 K, 6500 kPa, x2 = 0.2361 | -1.94 ± 0.041
308.15 K, 6500 kPa, x2 = 0.3292 | -2.67 ± 0.057
308.15 K, 6500 kPa, x2 = 0.4101 | -3.29 ± 0.07
308.15 K, 6500 kPa, x2 = 0.4811 | -3.85 ± 0.082
308.15 K, 6500 kPa, x2 = 0.5438 | -4.34 ± 0.092
308.15 K, 6500 kPa, x2 = 0.5996 | -4.78 ± 0.1
308.15 K, 6500 kPa, x2 = 0.6496 | -5.18 ± 0.11
308.15 K, 6500 kPa, x2 = 0.6947 | -5.55 ± 0.12
308.15 K, 6500 kPa, x2 = 0.7355 | -5.8 ± 0.12
308.15 K, 6500 kPa, x2 = 0.7727 | -6.06 ± 0.13
308.15 K, 6500 kPa, x2 = 0.8066 | -6.27 ± 0.13
308.15 K, 6500 kPa, x2 = 0.8378 | -6.52 ± 0.14
308.15 K, 6500 kPa, x2 = 0.8665 | -6.71 ± 0.14
308.15 K, 7000 kPa, x2 = 0.1283 | -0.97 ± 0.021
308.15 K, 7000 kPa, x2 = 0.237 | -1.76 ± 0.038
308.15 K, 7000 kPa, x2 = 0.3304 | -2.46 ± 0.052
308.15 K, 7000 kPa, x2 = 0.4114 | -3.05 ± 0.065
308.15 K, 7000 kPa, x2 = 0.4824 | -3.59 ± 0.076
308.15 K, 7000 kPa, x2 = 0.5451 | -3.98 ± 0.085
308.15 K, 7000 kPa, x2 = 0.6009 | -4.4 ± 0.094
308.15 K, 7000 kPa, x2 = 0.6509 | -4.75 ± 0.1
308.15 K, 7000 kPa, x2 = 0.6958 | -5.08 ± 0.11
308.15 K, 7000 kPa, x2 = 0.7366 | -5.29 ± 0.11
308.15 K, 7000 kPa, x2 = 0.7736 | -5.56 ± 0.12
308.15 K, 7000 kPa, x2 = 0.8075 | -5.78 ± 0.12
308.15 K, 7000 kPa, x2 = 0.8385 | -5.93 ± 0.13
308.15 K, 7000 kPa, x2 = 0.8671 | -6.02 ± 0.13
308.15 K, 7000 kPa, x2 = 0.8935 | -6.1 ± 0.13
308.15 K, 7000 kPa, x2 = 0.9179 | -6.14 ± 0.13
308.15 K, 7500 kPa, x2 = 0.1289 | -0.836 ± 0.018
308.15 K, 7500 kPa, x2 = 0.238 | -1.49 ± 0.032
308.15 K, 7500 kPa, x2 = 0.3315 | -2.04 ± 0.044
308.15 K, 7500 kPa, x2 = 0.4127 | -2.61 ± 0.056
308.15 K, 7500 kPa, x2 = 0.4837 | -3.04 ± 0.065
308.15 K, 7500 kPa, x2 = 0.5464 | -3.43 ± 0.073
308.15 K, 7500 kPa, x2 = 0.6021 | -3.78 ± 0.08
308.15 K, 7500 kPa, x2 = 0.652 | -4.07 ± 0.087
308.15 K, 7500 kPa, x2 = 0.6969 | -4.36 ± 0.093
308.15 K, 7500 kPa, x2 = 0.7376 | -4.61 ± 0.098
308.15 K, 7500 kPa, x2 = 0.7745 | -4.8 ± 0.1
308.15 K, 7500 kPa, x2 = 0.8083 | -4.97 ± 0.11
308.15 K, 7500 kPa, x2 = 0.8392 | -5.18 ± 0.11
308.15 K, 7500 kPa, x2 = 0.8677 | -5.25 ± 0.11
308.15 K, 7500 kPa, x2 = 0.894 | -5.36 ± 0.11
308.15 K, 7500 kPa, x2 = 0.9183 | -5.25 ± 0.11
308.15 K, 7500 kPa, x2 = 0.9409 | -5.17 ± 0.11
308.15 K, 7500 kPa, x2 = 0.962 | -4.91 ± 0.1

From the NIST ThermoML archive (doi:10.1021/je8001442)
